Reference: PubChem BioAssay AID328 (DTP/NCI, 2004)
Values joined by “and” are separate entries in the source; they are usually repeats but may differ in a detail not shown here. Equal values may be shown once. Toxic doses and inconclusive results are not listed.

Tested on: BDF1 mice, P388 leukemia ip, median survival T/C
Experiment: NCI In Vivo Anticancer Drug Screen. Data for tumor model P388 Leukemia (intraperitoneal) in B6D2F1 (BDF1) mice
Details: endpoint: median survival time, higher = longer survival
Summary of the method: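 Reported as T/C, where T is the survival measurement in dosed animals and C the same measurement in vehicle controls.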

[1] = dose: 50.0 mg/kg/injection, schedule: Q01DX009 (ip), vehicle: saline
[2] = dose: 100.0 mg/kg/injection, schedule: Q04DX003 (ip), vehicle: saline
[3] = dose: 200.0 mg/kg/injection, schedule: Q04DX003 (ip), vehicle: saline
[4] = dose: 400.0 mg/kg/injection, schedule: Q04DX003 (ip), vehicle: saline
[5] = dose: 12.5 mg/kg/injection, schedule: Q01DX009 (ip), vehicle: saline with Tween-80
[6] = dose: 25.0 mg/kg/injection, schedule: Q01DX009 (ip), vehicle: saline with Tween-80
[7] = dose: 50.0 mg/kg/injection, schedule: Q01DX009 (ip), vehicle: saline with Tween-80
[8] = dose: 100.0 mg/kg/injection, schedule: Q01DX009 (ip), vehicle: saline with Tween-80
[9] = dose: 200.0 mg/kg/injection, schedule: Q01DX001 (ip), vehicle: Klucel (hydroxypropylcellulose) (HPC)
[10] = dose: 400.0 mg/kg/injection, schedule: Q01DX001 (ip), vehicle: Klucel (hydroxypropylcellulose) (HPC)
[11] = dose: 100.0 mg/kg/injection, schedule: Q04DX003 (ip), vehicle: saline with Tween-80
[12] = dose: 200.0 mg/kg/injection, schedule: Q01DX009 (ip), vehicle: saline with Tween-80
[13] = dose: 400.0 mg/kg/injection, schedule: Q01DX009 (ip), vehicle: saline with Tween-80
[14] = dose: 100.0 mg/kg/injection, schedule: Q01DX009 (ip), vehicle: saline
[15] = dose: 200.0 mg/kg/injection, schedule: Q01DX009 (ip), vehicle: saline
[16] = dose: 200.0 mg/kg/injection, schedule: Q04DX003 (ip), vehicle: saline with Tween-80
[17] = dose: 400.0 mg/kg/injection, schedule: Q04DX003 (ip), vehicle: saline with Tween-80
[18] = dose: 100.0 mg/kg/injection, schedule: Q04DX003 (ip), vehicle: Klucel (hydroxypropylcellulose) (HPC)

SMILES: NNc1ncnc2c1ncn2C1OC(CO)C(O)C1O (stereo unspecified)
- T/C (dose: 7.5 mg/kg/injection, schedule: Q04DX003 (ip), vehicle: saline): 90 % of control
- T/C (dose: 12.5 mg/kg/injection, schedule: Q01DX009 (ip), vehicle: saline): 109 % of control
- T/C (dose: 15.0 mg/kg/injection, schedule: Q01DX010 (ip), vehicle: saline): 113 % of control
- T/C (dose: 15.0 mg/kg/injection, schedule: Q04DX003 (ip), vehicle: saline): 105 % of control
- T/C (dose: 25.0 mg/kg/injection, schedule: Q01DX009 (ip), vehicle: saline): 109 % of control
- T/C (dose: 30.0 mg/kg/injection, schedule: Q04DX003 (ip), vehicle: saline): 105 % of control
- T/C [1]: 113 % of control
- T/C (dose: 60.0 mg/kg/injection, schedule: Q01DX010 (ip), vehicle: saline): 154 % of control
- T/C (dose: 60.0 mg/kg/injection, schedule: Q04DX003 (ip), vehicle: saline): 120 % of control
- T/C (dose: 120.0 mg/kg/injection, schedule: Q04DX003 (ip), vehicle: saline): 105 % of control

SMILES: NS(=O)(=O)c1ccc(N=Nc2nc3ncnc(SCc4cccs4)c3[nH]2)cc1
- T/C (dose: 100.0 mg/kg/injection, schedule: Q01DX009 (ip), vehicle: other): 95 % of control
- T/C [2]: 104 % of control
- T/C (dose: 200.0 mg/kg/injection, schedule: Q01DX009 (ip), vehicle: other): 118 % of control
- T/C [3]: 104 % of control
- T/C (dose: 400.0 mg/kg/injection, schedule: Q01DX009 (ip), vehicle: other): 86 % of control
- T/C [4]: 108 % of control

SMILES: CN(C(=S)SSC(=S)N(C)c1ccccc1)c1ccccc1
- T/C [5]: 98 % of control
- T/C [6]: 99 % of control
- T/C [7]: 100 % of control
- T/C [8]: 92 % of control
- T/C [9]: 91 % of control
- T/C [10]: 95 % of control

SMILES: CC(=O)Nc1ccc2c(c1)C[N+](C)(C1CCCCC1)CO2 (stereo unspecified)
- T/C [6]: 109 % of control
- T/C (dose: 25.0 mg/kg/injection, schedule: Q04DX003 (ip), vehicle: saline with Tween-80): 95 % of control
- T/C [7]: 109 % of control
- T/C (dose: 50.0 mg/kg/injection, schedule: Q04DX003 (ip), vehicle: saline with Tween-80): 91 % of control
- T/C [11]: 95 % of control

SMILES: CC(O)C(NCNC(=O)C1=C(O)C2(O)C(=O)C3=C(O)c4c(O)cccc4C(C)(O)C3CC2C(N(C)C)C1=O)C(=O)O (stereo unspecified)
- T/C [8]: 91 % of control
- T/C [12]: 100 % of control
- T/C [13]: 87 % of control

SMILES: NC(=O)NN=C1COC(c2ccccc2)OC1 (stereo unspecified)
- T/C [1]: 110 % of control
- T/C [14]: 110 % of control
- T/C [2]: 116 % of control
- T/C [15]: 91 % of control
- T/C [3]: 104 % of control

SMILES: C=CCSc1ncnc2c1ncn2C1OC(CO)C(O)C1O (stereo unspecified)
- T/C [8]: 113 % of control

SMILES: CCCC(O)C(C)(C)[N+](=O)[O-] (stereo unspecified)
- T/C (dose: 6.25 mg/kg/injection, schedule: Q01DX009 (ip), vehicle: saline with Tween-80): 99 % of control
- T/C [5]: 89 % of control

SMILES: CC1OCC2OC(C)OC(C(COC(c3ccccc3)(c3ccccc3)c3ccccc3)OS(C)(=O)=O)C2O1 (stereo unspecified)
- T/C [2]: 100 % of control
- T/C [3]: 104 % of control
- T/C [4]: 108 % of control

SMILES: CS(=O)(=O)OCCF
- T/C (dose: 1.5 mg/kg/injection, schedule: Q01DX009 (ip), vehicle: saline with Tween-80): 100 % of control
- T/C (dose: 1.5 mg/kg/injection, schedule: Q04DX003 (ip), vehicle: saline): 104 % of control
- T/C (dose: 3.0 mg/kg/injection, schedule: Q01DX009 (ip), vehicle: saline with Tween-80): 100 % of control
- T/C (dose: 3.0 mg/kg/injection, schedule: Q04DX003 (ip), vehicle: saline): 109 % of control

SMILES: CC(O)C(=O)N1Cc2cc3ccccc3nc2C1 (stereo unspecified)
- T/C (dose: 50.0 mg/kg/injection, schedule: Q01DX001 (ip), vehicle: saline sonified): 95 % of control
- T/C (dose: 100.0 mg/kg/injection, schedule: Q01DX001 (ip), vehicle: saline sonified): 104 % of control
- T/C (dose: 200.0 mg/kg/injection, schedule: Q01DX001 (ip), vehicle: saline sonified): 95 % of control

SMILES: CC(=O)Nc1cc2c(cc1[N+](=O)[O-])-c1ccccc1C2O (stereo unspecified)
- T/C [8]: 100 % of control
- T/C [11]: 100 % of control
- T/C [12]: 90 % of control
- T/C [16]: 104 % of control
- T/C [17]: 104 % of control

SMILES: Cc1c(C)c(CC#N)c(C)c(C)c1CC#N
- T/C (dose: 25.0 mg/kg/injection, schedule: Q01DX009 (ip), vehicle: Klucel (hydroxypropylcellulose) (HPC)): 91 % of control
- T/C (dose: 50.0 mg/kg/injection, schedule: Q01DX009 (ip), vehicle: Klucel (hydroxypropylcellulose) (HPC)): 91 % of control
- T/C (dose: 100.0 mg/kg/injection, schedule: Q01DX009 (ip), vehicle: Klucel (hydroxypropylcellulose) (HPC)): 87 % of control
- T/C [18]: 92 % of control
- T/C (dose: 200.0 mg/kg/injection, schedule: Q01DX009 (ip), vehicle: Klucel (hydroxypropylcellulose) (HPC)): 91 % of control

SMILES: CC[n+]1ccc(Nc2ccc(/C=C/c3ccc4cc(Nc5cc[n+](CC)cc5)ccc4[n+]3CC)cc2)cc1
- T/C (dose: 2.5 mg/kg/injection, schedule: Q01DX009 (ip), vehicle: saline): 158 % of control and 161 % of control
- T/C (dose: 3.13 mg/kg/injection, schedule: Q01DX009 (oral), vehicle: saline): 86 % of control
- T/C (dose: 5.0 mg/kg/injection, schedule: Q01DX009 (ip), vehicle: saline): 177 % of control and 187 % of control
- T/C (dose: 6.25 mg/kg/injection, schedule: Q01DX009 (oral), vehicle: saline): 93 % of control
- T/C (dose: 10.0 mg/kg/injection, schedule: Q01DX009 (ip), vehicle: saline): 229 % of control and 239 % of control
- T/C (dose: 12.5 mg/kg/injection, schedule: Q01DX009 (oral), vehicle: saline): 86 % of control
- T/C (dose: 25.0 mg/kg/injection, schedule: Q01DX009 (oral), vehicle: saline): 86 % of control

SMILES: CC1(C)CCCC(C(Cc2ccc3ccccc3n2)c2ccccc2)C1=O (stereo unspecified)
- T/C (dose: 100.0 mg/kg/injection, schedule: Q01DX001 (ip), vehicle: saline with Tween-80): 98 % of control
- T/C (dose: 200.0 mg/kg/injection, schedule: Q01DX001 (ip), vehicle: saline with Tween-80): 96 % of control
- T/C (dose: 400.0 mg/kg/injection, schedule: Q01DX001 (ip), vehicle: saline with Tween-80): 88 % of control

SMILES: Cc1cccc2c(N3CCOCC3)c3c(nc12)CCCCC3
- T/C [11]: 105 % of control
- T/C [16]: 95 % of control
- T/C [17]: 100 % of control

SMILES: COc1ccc(/C=C(/C#N)C(N)=O)cc1Br
- T/C (dose: 100.0 mg/kg/injection, schedule: Q01DX001 (ip), vehicle: Klucel (hydroxypropylcellulose) (HPC)): 100 % of control
- T/C [14]: 100 % of control
- T/C [2]: 100 % of control
- T/C [9]: 113 % of control
- T/C [15]: 95 % of control
- T/C [3]: 120 % of control
- T/C [10]: 109 % of control
- T/C (dose: 400.0 mg/kg/injection, schedule: Q01DX009 (ip), vehicle: saline): 90 % of control
- T/C [4]: 120 % of control

SMILES: C1SCSCS1
- T/C (dose: 75.0 mg/kg/injection, schedule: Q01DX009 (ip), vehicle: Klucel (hydroxypropylcellulose) (HPC)): 118 % of control
- T/C (dose: 100.0 mg/kg/injection, schedule: Q01DX001 (ip), vehicle: other): 109 % of control
- T/C [18]: 100 % of control
- T/C (dose: 150.0 mg/kg/injection, schedule: Q01DX009 (ip), vehicle: Klucel (hydroxypropylcellulose) (HPC)): 100 % of control
- T/C (dose: 200.0 mg/kg/injection, schedule: Q01DX001 (ip), vehicle: other): 90 % of control
- T/C (dose: 200.0 mg/kg/injection, schedule: Q04DX003 (ip), vehicle: Klucel (hydroxypropylcellulose) (HPC)): 109 % of control
- T/C (dose: 300.0 mg/kg/injection, schedule: Q01DX009 (ip), vehicle: Klucel (hydroxypropylcellulose) (HPC)): 113 % of control
- T/C (dose: 400.0 mg/kg/injection, schedule: Q01DX001 (ip), vehicle: other): 100 % of control
- T/C (dose: 400.0 mg/kg/injection, schedule: Q04DX003 (ip), vehicle: Klucel (hydroxypropylcellulose) (HPC)): 113 % of control

SMILES: Cc1ccc(C(=O)NCCCOc2ccc([N+](=O)[O-])cc2Cl)cc1S(=O)(=O)F
- T/C [7]: 98 % of control
- T/C [8]: 114 % of control
- T/C [11]: 99 % of control
- T/C [12]: 98 % of control
- T/C [16]: 99 % of control
- T/C [13]: 107 % of control
- T/C [17]: 90 % of control
